Reference: US12077503B2, “Substituted cyclic amides and their use as herbicides” (FMC CORPORATION, priority 2015, dated 2024)

Tests used:
Assay type in all cases: in vivo
Kochia (Kochia scoparia) = assay: Test A preemergence; settings: Bassia scoparia, pre-emergence, 240 h, 0 to 100 scale (0 no effect, 100 complete control), read-out: Plant response rating, Kochia
Procedure, shortened: (§1)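 Ratings of 0 (no effect) to 100 (complete control) come from visual comparison with untreated controls roughly 10 d after treatment. Test chemicals, formulated in a non-phytotoxic solvent mixture with surfactant, were applied either as a preemergence directed soil spray on seeded soil or postemergence to one- to two-leaf plants 2 to 10 cm tall.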

[1] = system: barnyardgrass (Echinochloa crus-galli); assay: Test A preemergence; settings: Echinochloa crus-galli, pre-emergence, 240 h, 0 to 100 scale (0 no effect, 100 complete control), read-out: Plant response rating, Barnyardgrass
Procedure, shortened: as §1

[2] = system: giant foxtail (Setaria faberii); assay: Test A preemergence; settings: Setaria faberi, pre-emergence, 240 h, 0 to 100 scale (0 no effect, 100 complete control), read-out: Plant response rating, Foxtail, Giant
Procedure, shortened: as §1

[3] = system: pigweed (Amaranthus retroflexus); assay: Test A preemergence; settings: Amaranthus retroflexus, pre-emergence, 240 h, 0 to 100 scale (0 no effect, 100 complete control), read-out: Plant response rating, Pigweed
[4] = system: ragweed (common ragweed, Ambrosia elatior); assay: Test A preemergence; settings: Ambrosia artemisiifolia, pre-emergence, 240 h, 0 to 100 scale (0 no effect, 100 complete control), read-out: Plant response rating, Ragweed
Procedure, shortened: as §1

[5] = system: ryegrass, Italian (Italian ryegrass, Lolium multiflorum); assay: Test A preemergence; settings: Lolium multiflorum, pre-emergence, 240 h, 0 to 100 scale (0 no effect, 100 complete control), read-out: Plant response rating, Ryegrass, Italian
Procedure, shortened: as §1

corn (Zea mays) = assay: Test A postemergence; settings: Zea mays, post-emergence, 240 h, Postemergence
Procedure, shortened: as §1

[6] = system: pigweed (Amaranthus retroflexus); assay: Test A postemergence; settings: Amaranthus retroflexus, post-emergence, 240 h, Postemergence, read-out: Plant response rating, Pigweed
Procedure, shortened: as §1

[7] = system: ryegrass, Italian (Italian ryegrass, Lolium multiflorum); assay: Test A postemergence; settings: Lolium multiflorum, post-emergence, 240 h, Postemergence, read-out: Plant response rating, Ryegrass, Italian
Procedure, shortened: as §1

[8] = system: wheat (Triticum aestivum); assay: Test A postemergence; settings: Triticum aestivum, post-emergence, 240 h, Postemergence, read-out: Plant response rating, Wheat
Procedure, shortened: as §1

[9] = system: barnyardgrass (Echinochloa crus-galli); assay: Test B flooded paddy test; settings: Echinochloa crus-galli, 360 h, Flood, 250 g ai/ha; visually evaluated after 13 to 15 d; read-out: Plant response rating, Barnyardgrass (0 to 100 scale where 0 is no effect and 100 is complete control)
Procedure, shortened: (§2)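 Rating scale 0–100 (visual, vs untreated controls) after a 13–15 d greenhouse period; application to the flood layer, 3 cm above soil and maintained; plants at 2-leaf stage when treated.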

[10] = system: ducksalad (Heteranthera limosa); assay: Test B flooded paddy test; settings: Heteranthera limosa, 360 h, Flood, 250 g ai/ha; visually evaluated after 13 to 15 d; read-out: Plant response rating, Ducksalad (0 to 100 scale where 0 is no effect and 100 is complete control)
Procedure, shortened: as §2

rice (Oryra sativa) = assay: Test B flooded paddy test; settings: Oryza sativa, 360 h, Flood, 250 g ai/ha; visually evaluated after 13 to 15 d; read-out: Plant response rating, Rice (0 to 100 scale where 0 is no effect and 100 is complete control)
Procedure, shortened: as §2

[11] = system: sedge, umbrella (small-flower umbrella sedge, Cyperus difformis); assay: Test B flooded paddy test; settings: Cyperus difformis, 360 h, Flood, 250 g ai/ha; visually evaluated after 13 to 15 d; read-out: Plant response rating, Sedge, Umbrella (0 to 100 scale where 0 is no effect and 100 is complete control)
Procedure, shortened: as §2

[12] = 125 g ai/ha, visual injury after approx. 10 d, 0 to 100 scale, 0 no effect, 100 complete control
[13] = 500 g ai/ha, visual injury, 0 to 100 scale (0 no effect, 100 complete control), approx. 10 d

## O=C1NC[C@H](c2cncc(C(F)(F)F)c2)[C@H]1C(=O)Nc1cccc(F)c1F [Compound 1394]
Kochia (Kochia scoparia); 500 g ai/ha, preemergence
  pest or weed control at 500 g/ha: 60%
Kochia (Kochia scoparia); Preemergence, 125 g ai/ha
  pest or weed control at 125 g/ha: 40%
[1]; 500 g ai/ha, preemergence
  pest or weed control at 500 g/ha: 90%
[1]; Preemergence, 125 g ai/ha
  pest or weed control at 125 g/ha: 90%
[2]; 500 g ai/ha, preemergence
  pest or weed control at 500 g/ha: 90%
[2]; Preemergence, 125 g ai/ha
  pest or weed control at 125 g/ha: 90%
[3]; 500 g ai/ha, preemergence
  pest or weed control at 500 g/ha: 30%
[3]; Preemergence, 125 g ai/ha
  pest or weed control at 125 g/ha: 0%
[4]; 500 g ai/ha, preemergence
  pest or weed control at 500 g/ha: 80%
[4]; Preemergence, 125 g ai/ha
  pest or weed control at 125 g/ha: 20%
[5]; 500 g ai/ha, preemergence
  pest or weed control at 500 g/ha: 60%
[5]; Preemergence, 125 g ai/ha
  pest or weed control at 125 g/ha: 50%
Corn (Zea mays); [12]
  Corn plant response rating (crop injury, 0 = no effect, 100 = complete kill) at 125 g/ha: 40%
Corn (Zea mays); [13]
  Corn plant response rating (crop injury, 0 = no effect, 100 = complete kill) at 500 g/ha: 70%
[6]; [12]
  pest or weed control at 125 g/ha: 0%
[6]; [13]
  pest or weed control at 500 g/ha: 20%
[7]; [12]
  pest or weed control at 125 g/ha: 0%
[7]; [13]
  pest or weed control at 500 g/ha: 20%
[8]; [12]
  plant injury at 125 g/ha: 0%
[8]; [13]
  plant injury at 500 g/ha: 60%
[9]
  pest or weed control at 250 g/ha: 40%
[10]
  pest or weed control at 250 g/ha: 75%
Rice (Oryra sativa)
  pest or weed control at 250 g/ha: 10%
[11]
  pest or weed control at 250 g/ha: 0%
